Several values for one entry are separate records, joined by “and”; a condition that tells them apart may be missing. Identical values can stand only once. Entries after “also recorded” stand apart in the source; their conditions may differ. Ends that are not written are not given here.

Data set [1] can be described thus: Body weight and death of tumor-bearing nude mice in the in vivo efficacy test. More on the design: species or system BALB/c nude mice. The conditions noted are these: each treatment group, 4 weeks intravenous administration. Here is the method:
4-1. Nude mice were randomly divided into 5 groups: model group, positive control group, sp4 low-dose group, sp4 medium-dose group, and sp4 high-dose group, 6 mice each group (low-dose group: 4 mg/kgBW; medium-dose group: 8 mg/kgBW; high-dose group: 16 mg/kgBW; model group: injected with an equal volume of normal saline; positive control group: injected with paclitaxel at 10 mg/kgBW; administrated twice a week).
4-2. after divided into groups, animals were injected via tail veins at 4:00 pm every day; mice in the model group and the administration group were respectively injected with normal saline and drugs for 4 weeks, and the paclitaxel group was administered paclitaxel twice a week.
4-3, measured the tumor size and body weight on the day of grouping and every other day; TV=0.5*a*b^2, a represents long diameter, b represents short diameter.

Data set [2] is described as follows: Animal acute toxicity test, maximal tolerable dose (MTD). In kind it is in vivo, ICR mice. To be noted: for Mice weight: 700 mg/kg BW dose group. As to the method:
Embodiment 8 Animal Acute Toxicity Test—Maximal Tolerable Dose (MTD)
I. Experimental Conditions: GLP
1. Test animal: Healthy adult ICR mice, male, weight 19-20 g, n=10;
3. Test sample preparation method;
4. Administration route: tail vein injection in mice;
5. Dosing volume: 0.5 ml/time;
6. Frequency of administration: in accordance with FDA guidelines;
Acute toxicity refers to the toxic reaction produced by a drug within a certain period of time after a single dose or multiple-dose within 24 hours. In narrow sense, a single dose toxicity study is to investigate the acute toxic reactions after a single administration of a test substance. This guideline refers to single dose toxicity study in a broad sense, which can be obtained by single or multiple dosing within 24 hours;
II. Detection of Maximal Tolerable Dose (MTD)
Firstly, the working solutions at three concentrations that would not cause the death of test animals were prepared, and one animal was injected via tail veins (1.5 mL, by 3 times). The first dose was 1.5 mL of working solution with 1150 mg/kgBW, which was injected to mice by 3 times via tail veins within 24 hours. On the next day, if no death was found, the remaining 9 animals were injected with the same dose via tail veins (a total of n=10); if the first animal died, the dose would be reduced.

The test system of data set [3] is subcutaneous human osteosarcoma MG-63 xenograft tumor. The experiment in a line: Detection of human osteosarcoma MG-63 cell cycle in nude mice. The conditions noted are these: positive control Paclitaxel group (10 mg/kgBW twice a week). In kind it is in vivo. Here is the method:
(B) Detection of Human Osteosarcoma MG-63 Cell Cycle in Nude Mice
1. Preparation of Single Cell Suspension of Solid Tumor
1.1 Tumor block was washed 3 times with PBS buffer and cut into small blocks (1-2 mm), then washed 3 times with PBS, and transferred into a 50 ml centrifuge tube.
1.2 0.25% trypsin solution was added to digested at 37′C for 20-40 min, and gently shaken once every 5 min, to separate cells. 1.3 2 to 5 ml of serum-containing medium was added to terminate the trypsin digestion.
1.4 The suspension was stood for 2-3 min, and transferred to a new centrifuge tube, and filtered with a 200-mesh nylon mesh twice.
1.5 The filtered suspension was centrifuged at 1000 rpm for 5 min, and removed the supernatant.
1.6 5 ml of PBS buffer was added to centrifuge again, and removed the supernatant.
1.7 1 to 2 ml of culture solution was added according to the amount of cells, and the cells were counted for standby.
2. Detection of Cell Cycle
1) The cell culture solution was collected into a centrifuge tube for standby. […]
5) Flow cytometry detection and analysis: the red fluorescence was detected by a flow cytometer at the excitation wavelength of 488 nm, and the light scattering was detected also. […]

As to FLFSLIPSAISG [sp4], in data set [1], the “death in the in vivo efficacy test” value is reported as “no death occurred”. In data set [1] (P>0.05), the “weight gain of tumor-bearing nude mice vs control group” value is “not significantly different”. For the same molecule, the Mice weight in data set [2] (individual mice No. 1-10, 2018 May 15) was 20.5 g and 20.2 g (2×) and 20.6 g and 20.7 g and 20.4 g and 20.9 g and 20.1 g and 20 g and 20.3 g; in data set [2] (individual mice No. 1-10, 2018 May 16), 20.5 g (3×) and 20.7 g and 21.3 g and 21.2 g and 20.8 g and 20.4 g (2×) and 21.5 g; in data set [2] (individual mice No. 1-10, 2018 May 17) it was 21.1 g (3×) and 21.7 g and 21.3 g and 21.4 g and 20.8 g (2×) and 22.2 g and 21.2 g; in data set [2] (individual mice No. 1-10, 2018 May 18), 21.5 g (3×) and 22.1 g and 21.9 g (3×) and 21.7 g and 22.7 g and 21.1 g; in data set [2] (individual mice No. 1-10, 2018 May 19), 21.9 g and 21.6 g and 22.6 g (2×) and 22.5 g (3×) and 21.8 g (2×) and 23 g; in data set [2] (individual mice No. 1-10, 2018 May 20) it was 22.3 g and 22.8 g (5×) and 22.4 g and 23.7 g and 22.9 g and 22.5 g. Besides, the Mice weight in data set [2] (individual mice No. 1-10, 2018 May 21) was 22.7 g and 22.9 g (2×) and 23.5 g and 23.1 g (3×) and 24.1 g and 23.3 g and 23.4 g; in data set [2] (individual mice No. 1-10, 2018 May 22), 23.3 g and 23.5 g (2×) and 24.1 g and 23.6 g and 23.2 g and 24.8 g and 23.8 g (2×) and 23.4 g; in data set [2] (individual mice No. 1-10, 2018 May 23), 24.0 g and 24.1 g (2×) and 24.8 g and 24.2 g (2×) and 23.7 g and 25.1 g and 24.5 g and 24.4 g; in data set [2] (individual mice No. 1-10, 2018 May 24) it was 24.7 g (4×) and 25.2 g and 23.9 g and 25.6 g and 25.1 g and 24.8 g and 24.6 g; in data set [2] (individual mice No. 1-10, 2018 May 25) it was 25.3 g and 25.5 g (2×) and 25.8 g and 25.1 g (3×) and 24.8 g and 26.1 g and 24.9 g; in data set [2] (individual mice No. 1-10, 2018 May 26) it was 25.8 g and 25.9 g (3×) and 26.3 g and 25.6 g (2×) and 25.2 g and 26.5 g and 25.5 g. The Mice weight in data set [2] (individual mice No. 1-10, 2018 May 27) was 26.1 g and 26.2 g (2×) and 26.8 g and 26.3 g (2×) and 26.4 g and 27.2 g and 26 g and 25.8 g; in data set [2] (individual mice No. 1-10, 2018 May 28), 27.2 g and 27.1 g and 27.3 g and 26.9 g and 26.8 g (3×) and 27.7 g and 26.4 g and 26.6 g; in data set [2] (individual mice No. 1-10, 2018 May 29) it was 28.1 g and 27.9 g and 28.5 g and 27.2 g and 27.6 g and 27.5 g (2×) and 28.3 g and 27.1 g (2×). Further, the “Survival Rate %” value in data set [2] (700 mg/kg, 3 times/9 h, n=10) was 100%. Also, the “toxic reactions and deaths within 2 weeks after administration” value in data set [2] (ICR mice, 700 mg/kgBW intravenous) was “no toxic reactions and deaths occurred; also recorded: no behavioral abnormalities and deaths were observed”. For the same molecule, the “toxic reactions and deaths within 24 hours” value in data set [2] (ICR mice, 700 mg/kgBW intravenous, three times within 24 h) is “no toxic reactions and deaths occurred; also recorded: no toxic reaction and death were observed”. In addition, the Survival or not result in data set [2] (individual animals No. 1-10, 700 mg/kg, 3 times/9 h) is “Survival”. Further, in data set [2] (male, mouse, in vivo, iv, ICR mice, tail vein injection, administered by three times within 24 h), the MTD at 336 h was found to be 700 mg/kg.

Take `CC(=O)O[C@H]1C(=O)[C@@]2(C)[C@H]([C@H](OC(=O)c3ccccc3)[C@]3(O)C[C@H](OC(=O)[C@H](O)[C@@H](NC(=O)c4ccccc4)c4ccccc4)C(C)=C1C3(C)C)[C@]1(OC(C)=O)CO[C@@H]1C[C@@H]2O` [Paclitaxel]: the “cell cycle effect in subcutaneous human osteosarcoma xenograft tumor models” value in data set [3] is “significant G1 phase arrest”.

These data come from US11939399B2, “Synthetic peptide sp4 and use thereof” (TAIAN CITY QIHANG BIOTECHNOLOGY CO., priority 2018, dated 2024).
